Results on two compounds are retold here after patent US6432415B1, “Pharmaceutical gel and aerosol formulations and methods to administer the same to skin and mucosal surfaces” (Axrix Laboratories, Inc., priority 1999, dated 2002).

Format in all cases: physicochemical
Data set [1] is described as follows: Solubility of Propellant 152a in aqueous and ethanol/water solvents, with or without ethyl cellulose. On the procedure:
In one aspect, the propellant is 1,1-difluoroethane also known as Propellant 152a, commercially available under the trade mark Dymel®. Propellant 152a is slightly soluble in aqueous solvents (solubility of less than 1% by weight).
The inventors have experimented with ethanol as a cosolvent to be used in conjunction with Propellant 152a. When water is added to the ethanol/Propellant 152a mixture, the solubility of Propellant 152a decreases. […] This unexpected increase in solubility was not observed when hydroxyethyl cellulose or hydroxypropyl cellulose was used instead of ethyl cellulose.

The nature of data set [2]: Solubility of Amlexanox in solvents and at different pH. On the procedure: To illustrate the many aspects of the present invention, it is provided herein several Examples of formulations which comprise a specific not-very-soluble drug known as Amlexanox or 2-amino-7-(1-methylethyl)-5-oxo-5H-[1]benzopyrano-[2,3-b]-pyridine-3-carboxylic acid. Amlexanox is not very soluble in lower alkyl alcohols (0.58 mg/mL, in dehydrated ethanol) or water (0.005 mg/mL). However, solubility of Amlexanox increases with pH. […] Thus, at any given time, Amlexanox may be present in the formulation as a solution or suspension or both.

Data set [3] in a line: Solubility of Amlexanox in 95% ethanol with imidazole (visual observation). The conditions noted are these: 200 mM imidazole vs no imidazole. The method, then:
Amlexanox (4.8 mg to 20.5 mg) was added to seven glass scintillation vials. 95% Ethanol (in 5-100 uL aliquots) with various concentrations of imidazole (0-200 mM) was added to the vials containing Amlexanox. The total volume of 95% ethanol added to result in Amlexanox solubilization (by visual observation) was recorded.

Each structure is given as a SMILES string. In brackets after ≈: the same amount, converted by molar mass.

Take `CC(F)F` [Propellant 152a, 1,1-difluoroethane]: the “solubility of Propellant 152a” value is “less than 1 % by weight” in data set [1] (aqueous solvents); 62-64% in data set [1] (ethyl cellulose about 0.7% to about 1.4%, ethanol/water (80:20)); 62 to 64% in data set [1] (ethyl cellulose about 0.75% to about 10% added to ethanol or ethanol/water mixtures); “about 49%” in data set [1] (mixture of ethanol/water (80:20), no ethyl cellulose).

As a reminder, the solubility is the dissolved amount per volume that the medium holds. As for `CC(C)c1ccc2oc3nc(N)c(C(=O)O)cc3c(=O)c2c1` [Amlexanox, 2-amino-7-(1-methylethyl)-5-oxo-5H-[1]benzopyrano-[2,3-b]-pyridine-3-carboxylic acid], the solubility in data set [2] (aqueous buffer, pH 3.0) turned out to be 12 µg/mL (≈ 40.2 µM); in data set [2] (in water) it was 5 µg/mL (≈ 16.8 µM); in data set [2] (organic solvent or mixture, in dehydrated ethanol), 580 µg/mL (≈ 1940 µM); in data set [2] (pH 5.96, aqueous buffer), 15300 µg/mL (≈ 51300 µM). The “solubility in 95% ethanol with 200 mM imidazole relative to absence of imidazole” value in data set [3] was “approximately 7.5 fold”.
